Laboratory results from US20160251725A1, “METHOD FOR PREDICTING CLINICAL TOXICITY AND OUTCOME” (AGENCY FOR SCIENCE, TECHNOLOGY AND RESEARCH, priority 2013, published 2016).

Columns and labels:
mRCC patients [1] = assay: Progression-free and overall survival on first-line sunitinib (Kaplan-Meier, Cox regression); type: in vivo, human; settings: for Overall survival HR multivariate / Progression-free survival HR multivariate: starting dose as covariate
Description: (§1) Twelve patients in this study received a starting dose of 50 mg daily. Six patients started with 25 mg daily due to advanced age or patients' aversion to expected toxicities.
(§2) Genotype associations with toxicity events or responsive tumor were first analyzed using univariate logistic regression. Genotypes generating P<0.20 were further analyzed using multivariate logistic regression including patient age, gender, baseline ECOG status and starting dose as covariates. Progression-free survival and overall survival were estimated by means of Kaplan-Meier method, while the associations of genotypes and patient characteristics with PFS and OS were analyzed using two-tailed log rank test. The effects of genotypes on the progression-free survival and overall survival were then evaluated using multivariate Cox regression model by including genotypes and patient characteristics with P<0.05 in univariate analysis. […] In all analyses, missing data were kept missing except for baseline ECOG status, which was replaced with the median value. As this was designed as a validation study of previously observed correlations rather than an exploratory evaluation, multiple testing correction was not done.

mRCC patients [2] = assay: Tumor response to sunitinib (RECIST version 1.1), clinical benefit / primary resistance; type: in vivo, human
Description: as §1
Patient characteristics were also collected including age, gender, ethnicity, body weight and height, and Eastern Cooperative Oncology Group (ECOG) performance status. Memorial Sloan-Kettering Cancer Center (MSKCC) prognostic score was calculated for each patient with available data. All the collected data were de-identified by a third party before being used in statistical analysis. The follow-up period ended at the end of April, 2014.
as §2

[3] = ABCB1 haplotype TTT/TTT (homozygous carriers)
[4] = ABCB1 haplotype TTT/TTT vs Other

## CCN(CC)CCNC(=O)c1c(C)[nH]c(/C=C2\C(=O)Nc3ccc(F)cc32)c1C [sunitinib]
mRCC patients [1]; ABCB1 1236 T/C CC + CT
  Median overall survival: 20 months
  Median progression-free survival: 11.7 months
mRCC patients [1]; ABCB1 1236 T/C TT
  Median overall survival: 10.4 months
  Median progression-free survival: 3.6 months
mRCC patients [1]; ABCB1 1236 TT vs CC + CT
  Overall survival HR univariate: 1.7
  Progression-free survival HR univariate: 1.7
  Overall survival HR multivariate: 1.7
  Progression-free survival HR multivariate: 1.7
mRCC patients [1]; ABCB1 2677 G/TA Other
  Median overall survival: 19.6 months
  Median progression-free survival: 8.4 months
mRCC patients [1]; ABCB1 2677 G/TA TT
  Median overall survival: 5.9 months
  Median progression-free survival: 2.7 months
mRCC patients [1]; ABCB1 2677 TT vs Other
  Overall survival HR univariate: 2.9
  Progression-free survival HR univariate: 2.3
  Overall survival HR multivariate: 2.0
  Progression-free survival HR multivariate: 1.5
mRCC patients [1]; ABCB1 3435 C/T CC + CT
  Median overall survival: 19.5 months
  Median progression-free survival: 8.4 months
mRCC patients [1]; ABCB1 3435 C/T TT
  Median overall survival: 7.2 months
  Median progression-free survival: 2.7 months
mRCC patients [1]; ABCB1 3435 TT vs CC + CT
  Overall survival HR univariate: 1.6
  Progression-free survival HR univariate: 1.7
  Overall survival HR multivariate: 1.7
  Progression-free survival HR multivariate: 1.7
mRCC patients [1]; ABCB1 haplotype Other
  Median overall survival: 19.6 months
  Median progression-free survival: 8.4 months
mRCC patients [1]; [3]
  Median overall survival: 4.6 months
  Median progression-free survival: 2.4 months
mRCC patients [1]; [4]
  Overall survival HR univariate: 3.9
  Progression-free survival HR univariate: 4.9
  Overall survival HR multivariate: 5.0
  Progression-free survival HR multivariate: 5.5
mRCC patients [1]; Age
  Overall survival HR univariate: 1.0
  Progression-free survival HR univariate: 1.0
mRCC patients [1]; Baseline ECOG 0
  Median overall survival: 32.9 months
  Median progression-free survival: 16.1 months
mRCC patients [1]; Baseline ECOG 1
  Median overall survival: 19.6 months
  Median progression-free survival: 6.9 months
mRCC patients [1]; Baseline ECOG 1 vs 0
  Overall survival HR univariate: 1.9
  Progression-free survival HR univariate: 2.2
mRCC patients [1]; Baseline ECOG 2
  Median overall survival: 5.7 months
  Median progression-free survival: 3.3 months
mRCC patients [1]; Baseline ECOG 2 vs 0
  Overall survival HR univariate: 3.0
  Progression-free survival HR univariate: 2.8
mRCC patients [1]; Baseline ECOG 3
  Median overall survival: 15.7 months
  Median progression-free survival: 12.9 months
mRCC patients [1]; Baseline ECOG 3 vs 0
  Overall survival HR univariate: 2.7
  Progression-free survival HR univariate: 2.8
mRCC patients [1]; Gender Female
  Median overall survival: 19.9 months
  Median progression-free survival: 10.0 months
mRCC patients [1]; Gender Male
  Median overall survival: 16.3 months
  Median progression-free survival: 8.1 months
mRCC patients [1]; MSKCC Good
  Median overall survival: 41.4 months
  Median progression-free survival: 12.6 months
mRCC patients [1]; MSKCC Intermediate
  Median overall survival: 19.6 months
  Median progression-free survival: 10.0 months
mRCC patients [1]; MSKCC Intermediate vs Good
  Overall survival HR univariate: 2.2
  Progression-free survival HR univariate: 1.3
mRCC patients [1]; MSKCC Poor
  Median overall survival: 14 months
  Median progression-free survival: 5.5 months
mRCC patients [1]; MSKCC Poor vs Good
  Overall survival HR univariate: 3.1
  Progression-free survival HR univariate: 2.3
mRCC patients [1]; Male vs Female
  Overall survival HR univariate: 1.1
  Progression-free survival HR univariate: 1.1
mRCC patients [1]; Starting dose 37.5 mg
  Median overall survival: 19.5 months
  Median progression-free survival: 8.3 months
mRCC patients [1]; Starting dose 50 mg
  Median overall survival: 47.4 months
  Median progression-free survival: 17.3 months
mRCC patients [1]; Starting dose 37.5 vs ≦37.5 mg
  Overall survival HR univariate: 0.2
mRCC patients [1]; Starting dose 50 vs ≦37.5 mg
  Overall survival HR univariate: 0.1
mRCC patients [1]; Starting dose ≦37.5 mg
  Median overall survival: 4.6 months
  Median progression-free survival: 1.8 months
mRCC patients [1]; all 81 first-line patients
  Median overall survival: 19.5 months
  Median progression-free survival: 8.1 months
mRCC patients [2]; ABCB1 2677 G/TA Other
  Clinical benefit prevalence: 55/79
mRCC patients [2]; ABCB1 2677 G/TA TT
  Clinical benefit prevalence: 4/11
mRCC patients [2]; ABCB1 2677 TT vs Other
  Clinical benefit OR multivariate: 0.1
  Clinical benefit OR univariate: 0.3
mRCC patients [2]; ABCB1 3435 C/T CC + CT
  Clinical benefit prevalence: 54/78
mRCC patients [2]; ABCB1 3435 C/T TT
  Clinical benefit prevalence: 5/12
mRCC patients [2]; ABCB1 3435 TT vs CC + CT
  Clinical benefit OR multivariate: 0.2
  Clinical benefit OR univariate: 0.3
mRCC patients [2]; ABCB1 haplotype Other
  Clinical benefit prevalence: 57/82
mRCC patients [2]; ABCB1 haplotype TTT/TTT
  Clinical benefit prevalence: 2/8
mRCC patients [2]; [4]
  Clinical benefit OR multivariate: 0.1
  Clinical benefit OR univariate: 0.2
mRCC patients [2]; Age
  Clinical benefit OR univariate: 1.0
mRCC patients [2]; Baseline ECOG 0
  Clinical benefit prevalence: 20/25
mRCC patients [2]; Baseline ECOG 1
  Clinical benefit prevalence: 31/49
mRCC patients [2]; Baseline ECOG 1 vs 0
  Clinical benefit OR univariate: 0.4
mRCC patients [2]; Baseline ECOG 2
  Clinical benefit prevalence: 5/11
mRCC patients [2]; Baseline ECOG 2 vs 0
  Clinical benefit OR univariate: 0.2
mRCC patients [2]; Baseline ECOG 3
  Clinical benefit prevalence: 3/5
mRCC patients [2]; Baseline ECOG 3 vs 0
  Clinical benefit OR univariate: 0.4
mRCC patients [2]; Female vs Male
  Clinical benefit OR univariate: 1.2
mRCC patients [2]; Gender Female
  Clinical benefit prevalence: 13/19
mRCC patients [2]; Gender Male
  Clinical benefit prevalence: 46/71
mRCC patients [2]; Starting dose 37.5 mg
  Clinical benefit prevalence: 49/75
mRCC patients [2]; Starting dose 50 mg
  Clinical benefit prevalence: 9/11
mRCC patients [2]; Starting dose 37.5 vs ≦37.5 mg
  Clinical benefit OR univariate: 5.7
mRCC patients [2]; Starting dose ≦37.5 mg
  Clinical benefit prevalence: 1/4
mRCC patients [2]; all patients (n = 90)
  Clinical benefit prevalence (cases with PR or SD as best response/total in group): 59/90
